We go through 16 compounds from ChEMBL document CHEMBL1156285, “Stereochemistry-activity relationship of orally active tetralin S1P agonist prodrugs” (Bioorg Med Chem Lett, 2010).

pEC50: −log10 of the molar value. Activity calls are given as the source filed them. No cut-off for these calls is given here.

The target in series [1] is T1, Sphingosine 1-phosphate receptor 3 (Homo sapiens, UniProt Q99500). As to the kind of experiment: Agonist activity at human S1P3 receptor assessed as effect on calcium mobilization by Gi dependent whole cell assay. The class given is functional. On the technique in general: Calcium flux is commonly read through the fluorescence of an indicator in the cells.
Series [2] concerns the target T2, Sphingosine 1-phosphate receptor 1 (Homo sapiens, UniProt P21453). As to the kind of experiment: Agonist activity at human S1P1 receptor assessed as effect on calcium mobilization by Gi dependent whole cell assay. The format is functional.
In series [3] the test system is Mus musculus. As to the kind of experiment: Half life in mouse at 1 mg/kg after 1 week. To be noted: in vivo, 168 h. The class given is ADME, organism-based. Set-up: dose 1 mg/kg.
In series [4] the test system is Mus musculus. In words: Oral bioavailability in mouse at 1 mg/kg after 1 week. The class given is ADME, organism-based. To be noted: in vivo, 168 h.
For series [5], the species on record is Mus musculus. As to the kind of experiment: Immunosuppressive activity in mouse assessed as induction of […]. The class given is functional.
The species entered for series [6] is Mus musculus. In words: Immunosuppressive activity in mouse assessed as induction of lymphopenia. The format is functional.
For series [7], the system named is Mus musculus. As to the kind of experiment: Vd in mouse at 1 mg/kg after 1 week. As to conditions: in vivo, 168 h.
Series [8] in a line: Clearance in mouse at 1 mg/kg after 1 week. The class given is ADME, organism-based. The arrangement: dose 1 mg/kg. As to conditions: in vivo.
The target of series [9] is T3, Sphingosine kinase 2 (Mus musculus) (UniProt Q9JIA7).
T3 sequence (whole entry): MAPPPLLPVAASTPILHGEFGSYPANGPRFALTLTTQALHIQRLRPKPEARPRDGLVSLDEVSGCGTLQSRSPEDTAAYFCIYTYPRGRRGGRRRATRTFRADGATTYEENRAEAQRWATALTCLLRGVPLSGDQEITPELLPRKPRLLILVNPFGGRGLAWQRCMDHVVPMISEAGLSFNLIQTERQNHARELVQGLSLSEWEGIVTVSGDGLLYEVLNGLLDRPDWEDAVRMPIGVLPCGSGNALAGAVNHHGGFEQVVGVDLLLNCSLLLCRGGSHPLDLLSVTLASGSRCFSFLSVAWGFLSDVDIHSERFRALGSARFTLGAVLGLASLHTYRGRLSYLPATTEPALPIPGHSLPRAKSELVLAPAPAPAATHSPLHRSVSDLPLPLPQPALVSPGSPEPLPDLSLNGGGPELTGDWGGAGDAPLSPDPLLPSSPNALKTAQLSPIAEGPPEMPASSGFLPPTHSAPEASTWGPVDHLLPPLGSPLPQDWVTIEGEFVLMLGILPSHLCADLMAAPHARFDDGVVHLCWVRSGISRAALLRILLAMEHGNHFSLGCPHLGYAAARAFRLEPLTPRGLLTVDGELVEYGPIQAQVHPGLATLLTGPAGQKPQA
As to the kind of experiment: Induction of mouse SphK2 phosphorylation.

The test system of series [10] is Mus musculus. As to the kind of experiment: Immunosuppressive activity in mouse assessed as induction of lymphopenia at 1 mg/kg after 1 week. The arrangement: dose 1 mg/kg. The class given is functional, organism-based.
The target of series [11] is T4, Sphingosine kinase 2 (Homo sapiens) (UniProt Q9NRA0).
T4 sequence (whole entry): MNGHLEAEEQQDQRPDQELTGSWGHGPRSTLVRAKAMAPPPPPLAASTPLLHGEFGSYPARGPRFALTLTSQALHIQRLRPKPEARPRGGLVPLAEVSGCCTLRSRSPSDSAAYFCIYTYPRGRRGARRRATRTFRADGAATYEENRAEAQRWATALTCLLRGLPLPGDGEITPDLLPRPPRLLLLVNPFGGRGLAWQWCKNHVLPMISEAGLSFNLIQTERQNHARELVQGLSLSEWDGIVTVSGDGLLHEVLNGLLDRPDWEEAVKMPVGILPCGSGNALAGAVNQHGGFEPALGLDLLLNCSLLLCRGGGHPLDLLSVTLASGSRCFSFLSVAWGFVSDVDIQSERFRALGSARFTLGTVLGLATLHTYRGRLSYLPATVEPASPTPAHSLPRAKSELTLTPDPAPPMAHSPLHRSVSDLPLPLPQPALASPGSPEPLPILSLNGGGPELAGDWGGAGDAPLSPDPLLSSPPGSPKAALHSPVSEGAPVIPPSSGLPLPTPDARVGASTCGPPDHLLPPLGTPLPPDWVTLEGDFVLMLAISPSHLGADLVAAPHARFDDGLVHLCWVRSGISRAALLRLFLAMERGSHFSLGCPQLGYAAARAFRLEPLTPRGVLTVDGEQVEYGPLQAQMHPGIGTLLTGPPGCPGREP
In words: Induction of human SphK2 phosphorylation. Set-up: concentration or dose not given beside the values.

Series [12] addresses T5, Sphingosine 1-phosphate receptor 4 (Homo sapiens, UniProt O95977).
T5 sequence (O95977 whole entry): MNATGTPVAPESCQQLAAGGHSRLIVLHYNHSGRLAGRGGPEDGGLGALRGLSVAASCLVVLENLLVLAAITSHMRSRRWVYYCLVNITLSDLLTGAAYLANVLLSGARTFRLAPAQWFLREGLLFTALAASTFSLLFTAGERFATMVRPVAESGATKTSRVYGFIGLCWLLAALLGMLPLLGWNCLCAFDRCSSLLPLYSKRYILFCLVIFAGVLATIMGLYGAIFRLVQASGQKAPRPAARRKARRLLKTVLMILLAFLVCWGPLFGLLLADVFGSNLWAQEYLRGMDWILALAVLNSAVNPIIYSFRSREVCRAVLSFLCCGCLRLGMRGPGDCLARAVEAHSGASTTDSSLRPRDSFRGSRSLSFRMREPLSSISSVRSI
In words: Agonist activity at human S1P4 receptor assessed as effect on calcium mobilization by Gq dependent whole cell assay. The class given is functional.

Series [13] concerns the target Sphingosine 1-phosphate receptor 5 (Homo sapiens, UniProt Q9H228). In words: Agonist activity at human S1P5 receptor assessed as effect on calcium mobilization by Gq dependent whole cell assay. The format is functional.
The target of series [14] is T1, Sphingosine 1-phosphate receptor 3. As to the kind of experiment: Agonist activity at human S1P3 receptor assessed as effect on calcium mobilization by Gq dependent whole cell assay. The class given is functional.
Series [15] concerns the target T2, Sphingosine 1-phosphate receptor 1. As to the kind of experiment: Agonist activity at human S1P1 receptor assessed as effect on calcium mobilization by Gq dependent whole cell assay. The class given is functional.
Series [16] concerns the target Sphingosine 1-phosphate receptor 2 (Homo sapiens, UniProt O95136). In words: Agonist activity at human S1P2 receptor assessed as effect on calcium mobilization by Gq dependent whole cell assay. The format is functional.
Series [17] concerns Mus musculus. As to the kind of experiment: Half life in mouse at 2 mg/kg after 72 hrs. The format is ADME, organism-based. Set-up: dose 2 mg/kg. As to conditions: in vivo.
The test system of series [18] is Mus musculus. As to the kind of experiment: Oral bioavailability in mouse at 2 mg/kg after 72 hrs. The format is ADME, organism-based. As to conditions: in vivo.
The subject of series [19] is Mus musculus. As to the kind of experiment: Immunosuppressive activity in mouse assessed as induction of lymphopenia at 2 mg/kg after 72 hrs. The class given is functional, organism-based. Set-up: dose 2 mg/kg.

T1 sequence (Q99500 whole entry): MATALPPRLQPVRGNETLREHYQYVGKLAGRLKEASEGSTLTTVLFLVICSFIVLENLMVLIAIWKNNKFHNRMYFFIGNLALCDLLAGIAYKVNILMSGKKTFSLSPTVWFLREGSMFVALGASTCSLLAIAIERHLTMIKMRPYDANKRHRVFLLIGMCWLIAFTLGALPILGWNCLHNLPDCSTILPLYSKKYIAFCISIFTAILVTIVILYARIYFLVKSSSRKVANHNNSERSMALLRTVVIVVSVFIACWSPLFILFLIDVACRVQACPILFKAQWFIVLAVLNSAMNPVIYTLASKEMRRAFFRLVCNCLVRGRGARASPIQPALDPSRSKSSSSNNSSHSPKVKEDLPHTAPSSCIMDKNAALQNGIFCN
Chain of Sphingosine 1-phosphate receptor 2 (O95136 whole entry): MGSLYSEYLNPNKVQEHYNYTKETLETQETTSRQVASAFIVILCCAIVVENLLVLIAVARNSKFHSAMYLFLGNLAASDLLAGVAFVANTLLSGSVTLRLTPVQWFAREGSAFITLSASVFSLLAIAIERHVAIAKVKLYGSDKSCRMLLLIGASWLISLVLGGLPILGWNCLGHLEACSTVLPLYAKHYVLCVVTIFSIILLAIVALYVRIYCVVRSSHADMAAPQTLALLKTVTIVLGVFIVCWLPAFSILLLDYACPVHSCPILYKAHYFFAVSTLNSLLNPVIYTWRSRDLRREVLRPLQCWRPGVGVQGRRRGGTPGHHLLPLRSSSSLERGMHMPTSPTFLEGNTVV
Chain of Sphingosine 1-phosphate receptor 5 (Q9H228 whole entry): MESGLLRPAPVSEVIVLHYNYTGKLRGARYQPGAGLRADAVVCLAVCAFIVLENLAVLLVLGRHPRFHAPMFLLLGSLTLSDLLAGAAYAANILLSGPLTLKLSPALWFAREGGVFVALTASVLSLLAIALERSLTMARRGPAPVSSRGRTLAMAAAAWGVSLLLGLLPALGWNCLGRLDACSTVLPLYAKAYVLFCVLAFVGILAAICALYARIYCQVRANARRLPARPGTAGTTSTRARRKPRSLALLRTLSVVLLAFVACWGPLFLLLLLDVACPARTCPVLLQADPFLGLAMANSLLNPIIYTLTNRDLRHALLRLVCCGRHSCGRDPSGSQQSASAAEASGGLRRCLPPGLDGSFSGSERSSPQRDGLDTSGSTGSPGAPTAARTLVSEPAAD
T2 sequence (P21453 whole entry): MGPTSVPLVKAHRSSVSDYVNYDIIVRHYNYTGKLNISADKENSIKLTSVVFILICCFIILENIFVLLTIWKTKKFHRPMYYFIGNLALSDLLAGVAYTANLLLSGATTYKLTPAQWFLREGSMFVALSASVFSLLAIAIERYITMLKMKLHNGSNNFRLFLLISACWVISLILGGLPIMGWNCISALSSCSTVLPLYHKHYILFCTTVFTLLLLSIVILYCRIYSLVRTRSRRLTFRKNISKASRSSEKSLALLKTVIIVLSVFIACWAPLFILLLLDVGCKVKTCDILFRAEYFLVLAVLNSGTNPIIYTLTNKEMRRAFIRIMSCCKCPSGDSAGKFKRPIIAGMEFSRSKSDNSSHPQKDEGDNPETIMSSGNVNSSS

As a reminder, the pEC50 is the EC50 on a negative log10 scale, so that one unit is a factor of ten. Regarding `CCCCCCCCCCCCC/C=C/[C@@H](O)[C@@H](N)COP(=O)(O)O`, the figures for the pEC50 in [1] and in series [2] were 9.35 and 10.57, respectively.

What is called ED50 is the dose that gives a 50% effect, or the effect in half of the subjects. By Vd is commonly meant a proportionality between amount in the body and measured concentration, not a real space. As usually defined, the clearance is the volume of plasma or blood freed of the substance per unit of time. For the compound `CCCCCCCCc1ccc2c(c1)CC[C@H]([C@@](C)(N)CO)C2`, the t1/2 in the series on Mus musculus [3] was determined as 36 h. In the series on Mus musculus [4], this compound had an F of 55%. Moreover, the Activity in the series listed under Mus musculus [5] was 63%; in series [9], 90%; in series [11] it was 77%. In addition, the 50% effective dose (ED50) in the series filed under Mus musculus [6] came out at 0.1 mg/kg. The compound further displayed a Vd with Mus musculus [7] of 16 L/kg. This compound had a clearance in series [8] of 5.5 mL/min/kg. Besides, the result in the series with Mus musculus [10] was Active.

Regarding `CCCCCCCCc1ccc2c(c1)CC[C@@H]([C@@](C)(N)CO)C2`, the 50% effective dose (ED50) in the series filed under Mus musculus [6] came to 0.8 mg/kg. This compound displayed an Activity in [11] of 38%.

Regarding `CCCCCCCCc1ccc(CC[C@](N)(CO)COP(=O)(O)O)cc1` [FTY720-P], in series [12], the pEC50 is 7.65.

On to `CCCCCCCCc1ccc2c(c1)CC[C@H]([C@@](C)(N)COP(=O)(O)O)C2`, for which the negative logarithm of the EC50 (pEC50) in [13] was 8.83; in [1], 9.54; in series [14], 7.01; in [15], 8.75; in series [12], 7.80; in [2] it was 10.74. Moreover, the negative logarithm of the EC50 (pEC50) in [16] was under 5.30.

Consider `CCCCCCCCc1ccc2c(c1)CC[C@H]([C@](C)(N)CO)C2`, for which the ED50 in the series filed under Mus musculus [6] was over 5 mg/kg. Further, the Activity in series [11] was 0%.

Take `CCCCCCCCc1ccc2c(c1)CC[C@@H]([C@](C)(N)COP(=O)(O)O)C2`: the pEC50 in [1] is under 5.30; in [2], 7.71.

As for `CCCCCCCCc1ccc2c(c1)CC[C@@H]([C@](C)(N)CO)C2`, the Activity in series [11] was 0%.

For `CCCCCCCCc1ccc(CCC(N)(CO)CO)cc1` [FINGOLIMOD], the ED50 in the series listed under Mus musculus [6] worked out at 0.03 mg/kg. The Activity in series [9] came to 87%; in series [11], 76%.

Consider `CCCCCCCCc1ccc2c(c1)CC[C@@H](C(N)(CO)CO)C2`, for which the t1/2 in the series on Mus musculus [17] is 16 h. The Activity was found to be 3% in the series listed under Mus musculus [5], 4% in [9] and 9% in [11]. Also, the 50% effective dose (ED50) in the series filed under Mus musculus [6] was 0.2 mg/kg. The same compound registered a F with Mus musculus [18] of 55%. Further, in the series with Mus musculus [19], the outcome was Active.

For `CCCCCCCCc1ccc2c(c1)CC[C@@H](C(N)(CO)COP(=O)(O)O)C2` (stereo in doubt), the pEC50 in series [13] is 7.48; in series [1] it was under 5.30; in series [14] it was 7.59; in series [15], 6.88; in [12] it was 7.38; in series [2] it was 9.46. The pEC50 in series [16] was under 5.30.

Take `CCCCCCCCc1ccc(CC[C@@](N)(CO)COP(=O)(O)O)cc1`: the pEC50 in series [12] is 6.86.

Turning to `CCCCCCCCc1ccc2c(c1)CC[C@H]([C@](C)(N)COP(=O)(O)O)C2`, the negative-log EC50 (pEC50) in [1] is under 5.30; in series [14], 6.04; in series [15], under 5.30; in series [2], 7.86.

`CCCCCCCCc1ccc2c(c1)CC[C@H](C(N)(CO)CO)C2`: the 50% effective dose (ED50) in the series filed under Mus musculus [6] was 3.8 mg/kg. The compound further displayed an Activity in series [11] of 3%.

For `CCCCCCCCc1ccc2c(c1)CC[C@@H]([C@@](C)(N)COP(=O)(O)O)C2`, the pEC50 in series [1] is 9.82; in series [14] it was 7.42; in [15] it was 8.25; in series [2] it was 10.06.

`CCCCCCCCc1ccc2c(c1)CC[C@@H](C(N)(CO)COP(=O)(O)O)C2` (single isomer, unassigned; isomer 1): the pEC50 is 9.48 in series [13]; 9.67 in [1]; 7.73 in series [14]; 8.71 in [15]; 8.27 in series [12]; 10.11 in [2]. The negative logarithm of the EC50 (pEC50) in series [16] was under 5.30.
